Like-named read-outs stand apart in the source and are kept apart here.
Columns and labels:
[1] = test system: patients with overactive bladder; test: Phase 2 safety data, adverse events (main study and 52-week extension); parameters: Drug-related AE, n subjects / Drug-related AE, % subjects / Discontinuation due to AE, n subjects / Discontinuation due to AE, % subjects / Discontinuation due to drug-related AE, n subjects / Dry eye, n subjects / Dry eye, % subjects / Constipation, n subjects / Constipation, % subjects / Diarrhea, n subjects / Diarrhea, % subjects / Dry mouth, n subjects / Dry mouth, % subjects / Alanine aminotransferase increased, n subjects / Alanine aminotransferase increased, % subjects / Aspartate aminotransferase increased, n subjects / Aspartate aminotransferase increased, % subjects / Arthralgia, n subjects / Arthralgia, % subjects / Dizziness, n subjects / Dizziness, % subjects / Dysuria, n subjects / Dysuria, % subjects: dose or concentration left out as unconfirmed
Text: A placebo group was included in the main study, and a group that received tolterodine monotherapy was included in the main study and in the extension.

[2] = test system: patients with OAB; test: Phase 2b cardiovascular safety: orthostatic AEs, HR and BP changes; assay type: in vivo, human; conditions: tolterodine 4 mg
Text: None led to discontinuation. The overall incidence of orthostatic symptoms was low.
Small differences in the percent of subjects exceeding categorical heart rate and blood pressure thresholds for vibegron were similar to those in the tolterodine arm.

[3] = test system: men and women with OAB; test: Phase 2b efficacy study in men and women with OAB; assay type: in vivo, human
Text: Part 2 was designed to continue to assess the safety and efficacy of concomitant dosing. […] Subjects in both Part 1 and Part 2 had the option of enrolling in a 1-year extension. Participants were required to keep a voiding diary, recording the occurrence of each strong urge, total incontinence, and urge incontinence episode. Efficacy data for Part 1 and Part 2 are summarized herein.
The total number of urgency incontinence episodes must have exceeded the total number of stress incontinence episodes for all subjects.
Conversely, a dose dependent effect on urge incontinence or total incontinence was not observed.

[4] = human, in vivo, po
[5] = test system: QTc interval; test: Thorough QT study, single oral doses; conditions: single dose 400 mg moxifloxacin
[6] = Mass balance study with [14C]vibegron in healthy subjects; conditions: human plasma, 2 and 4 hr
[7] = 3 consecutive post-baseline visits
[8] = tolterodine ER 4 mg, OAB wet subjects

SMILES: Cc1ccc(O)c([C@H](CCN(C(C)C)C(C)C)c2ccccc2)c1 [Tolterodine ER, tolterodine]
- Accidental overdose, % subjects ([1]; 4 mg, first 12 weeks): (2.3) %
- Accidental overdose, n subjects ([1]; 4 mg, first 12 weeks): 6
- Fatigue, % subjects ([1]; 4 mg, first 12 weeks): (2.3) %
- Fatigue, n subjects ([1]; 4 mg, first 12 weeks): 6
- Headache, % subjects ([1]; 4 mg, first 12 weeks): (3.5) %
- Headache, n subjects ([1]; 4 mg, first 12 weeks): 9
- Nasopharyngitis, % subjects ([1]; 4 mg, first 12 weeks): (1.6) %
- Nasopharyngitis, n subjects ([1]; 4 mg, first 12 weeks): 4
- Nausea, % subjects ([1]; 4 mg, first 12 weeks): (2.3) %
- Nausea, n subjects ([1]; 4 mg, first 12 weeks): 6
- Osteoarthritis, % subjects ([1]; 4 mg, first 12 weeks): (0.0) %
- Osteoarthritis, n subjects ([1]; 4 mg, first 12 weeks): 0
- Pain in extremity, % subjects ([1]; 4 mg, first 12 weeks): (0.4) %
- Pain in extremity, n subjects ([1]; 4 mg, first 12 weeks): 1
- Serious AE, % subjects ([1]; 4 mg, first 12 weeks): (1.2) %
- Serious AE, n subjects ([1]; 4 mg, first 12 weeks): 3
- Sinusitis, % subjects ([1]; 4 mg, first 12 weeks): (0.4) %
- Sinusitis, n subjects ([1]; 4 mg, first 12 weeks): 1
- Urinary tract infection, % subjects ([1]; 4 mg, first 12 weeks): (4.7) %
- Urinary tract infection, n subjects ([1]; 4 mg, first 12 weeks): 12
- ≥1 AE, % subjects ([1]; 4 mg, first 12 weeks): (45.1) %
- ≥1 AE, n subjects ([1]; 4 mg, first 12 weeks): 116
- frequency of injuries ([1]; Phase 2 study arms): 2.1%
- Alanine aminotransferase increased, % subjects ([1]; first 12 weeks): (0.4) %
- Alanine aminotransferase increased, n subjects ([1]; first 12 weeks): 1
- Arthralgia, % subjects ([1]; first 12 weeks): (1.2) %
- Arthralgia, n subjects ([1]; first 12 weeks): 3
- Aspartate aminotransferase increased, % subjects ([1]; first 12 weeks): (0.0) %
- Aspartate aminotransferase increased, n subjects ([1]; first 12 weeks): 0
- Constipation, % subjects ([1]; first 12 weeks): (1.9) %
- Constipation, n subjects ([1]; first 12 weeks): 5
- Diarrhea, % subjects ([1]; first 12 weeks): (3.5) %
- Diarrhea, n subjects ([1]; first 12 weeks): 9
- Discontinuation due to AE, % subjects ([1]; first 12 weeks): (1.6) %
- Discontinuation due to AE, n subjects ([1]; first 12 weeks): 4
- Discontinuation due to drug-related AE, n subjects ([1]; first 12 weeks): 0
- Dizziness, % subjects ([1]; first 12 weeks): (1.9) %
- Dizziness, n subjects ([1]; first 12 weeks): 5
- Drug-related AE, % subjects ([1]; first 12 weeks): (16.3) %
- Drug-related AE, n subjects ([1]; first 12 weeks): 42
- Dry eye, % subjects ([1]; first 12 weeks): (3.9) %
- Dry eye, n subjects ([1]; first 12 weeks): 10
- Dry mouth, % subjects ([1]; first 12 weeks): (8.6) %
- Dry mouth, n subjects ([1]; first 12 weeks): 22
- Dysuria, % subjects ([1]; first 12 weeks): (1.2) %
- Dysuria, n subjects ([1]; first 12 weeks): 3
- SAEs reported ([1]; tolterodine 4 mg, main study): 3
- DBP change from baseline, mean (week 1) [2]: −0.12 mm Hg
- DBP change from baseline, mean maximum (week 1 to 8) [2]: 5.19 mm Hg
- HR change from baseline, mean (week 1) [2]: 0.68 bpm
- HR change from baseline, mean maximum (week 1 to 8) [2]: 5.66 bpm
- SBP change from baseline, mean (week 1) [2]: 0.04 mm Hg
- SBP change from baseline, mean maximum (week 1 to 8) [2]: 7.29 mm Hg
- DBP change from baseline ≥5 mm Hg, subjects [2, 7]: (12.4) %
- DBP change from baseline ≥10 bpm, subjects [2, 7]: (5.4) %
- DBP change from baseline ≥15 bpm, subjects [2, 7]: (1.2) %
- HR change from baseline ≥5 mm Hg, subjects [2, 7]: (12.0) %
- HR change from baseline ≥10 bpm, subjects [2, 7]: (4.5) %
- HR change from baseline ≥15 bpm, subjects [2, 7]: (1.7) %
- SBP change from baseline ≥5 mm Hg, subjects [2, 7]: (16.9) %
- SBP change from baseline ≥10 bpm, subjects [2, 7]: (7.9) %
- SBP change from baseline ≥15 bpm, subjects [2, 7]: (2.9) %
- Micturitions, change from baseline Week 8, mean ([3]; tolterodine ER 4 mg): −1.73
- Micturitions, daily number, Week 8 mean ([3]; tolterodine ER 4 mg): 9.24
- Micturitions, difference from placebo Week 8, difference in LS means ([3]; tolterodine ER 4 mg): −0.54
- Urgency episodes, change from baseline Week 8, mean ([3]; tolterodine ER 4 mg): −2.52
- Urgency episodes, daily number, Week 8 mean ([3]; tolterodine ER 4 mg): 3.91
- Urgency episodes, difference from placebo Week 8, difference in LS means ([3]; tolterodine ER 4 mg): −0.94
- Change from baseline in volume voided per micturition, difference from placebo in LS means ([3]; tolterodine ER 4 mg once daily, Week 8): 30.77 mL
- Total incontinence episodes, change from baseline Week 8, mean [3, 8]: −1.80
- Total incontinence episodes, daily number, Week 8 mean [3, 8]: 1.32
- Total incontinence episodes, difference from placebo Week 8, difference in LS means [3, 8]: −0.34
- Urgency incontinence episodes, change from baseline Week 8, mean [3, 8]: −1.67
- Urgency incontinence episodes, daily number, Week 8 mean [3, 8]: 1.15
- Urgency incontinence episodes, difference from placebo Week 8, difference in LS means [3, 8]: −0.46

SMILES: C#C[C@]1(O)CC[C@H]2[C@@H]3CCC4=CC(=O)CC[C@@H]4[C@H]3CC[C@@]21CC [LNG, levonorgestrel]
- AUC of conmed, geometric mean ([4]; 0.15 mg): 31 ng·h/mL

SMILES: COc1c(N2C[C@@H]3CCCN[C@@H]3C2)c(F)cc2c(=O)c(C(=O)O)cn(C3CC3)c12 [moxifloxacin, reference compound]
- effect on QTcF [5]: statistically significant effect

SMILES: C#C[C@]1(O)CC[C@H]2[C@@H]3CCc4cc(O)ccc4[C@H]3CC[C@@]21C [EE, ethinyl estradiol]
- AUC of conmed, geometric mean ([4]; 0.03 mg): 0.81 ng·h/mL

SMILES: O=C(O)C1OC(OC(c2ccccc2)C2CCC(Cc3ccc(NC(=O)C4CCc5nccc(=O)n54)cc3)N2)C(O)C(O)C1O (stereo not shown) [M7]
- share of total circulating drug-related material [6]: 12-14%

— patent publication US20230218624A1 (Urovant Sciences GmbH, priority 2017, published 2023)
